Here are results for one molecule from PubChem BioAssay (NCI).

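In this assay, cells in 96-well plates receive the compound at five concentrations for 48 hours. Endpoints are linearly interpolated between the surrounding concentrations. At the GI50, growth is halved. Definition used: TGI = concentration required for complete inhibition of growth.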

Some test systems named below: ACHN renal; EKVX NSCLC; HL-60(TB) leukemia; HT29 colon; K-562 leukemia; NCI-H522 lung; OVCAR-5 ovarian; SK-MEL-28 melanoma; SN12C renal; SR leukemia.
Holding throughout (assay): inhibition of tumour cell growth, NCI panel, 48 h

Turning to `Cc1ccc(NC(=O)c2ccnc(N3CCCC3)c2)cc1-c1ccc(C(=O)NCC2CC2)cc1`, the GI50 in the test on ACHN renal, in the test with EKVX NSCLC, in the test on HL-60(TB) leukemia, in the test on HT29 colon, in the test with K-562 leukemia and with NCI-H522 lung was > 25 µM throughout. Further, the GI50 with OVCAR-5 ovarian is > 25 µM; in the test with SK-MEL-28 melanoma, > 25 µM; with SN12C renal, > 25 µM; in the test on SR leukemia, 13 µM. Moreover, the TGI in the test on ACHN renal, in the test on EKVX NSCLC, in the test on HL-60(TB) leukemia, in the test with HT29 colon, in the test on K-562 leukemia and in the test on NCI-H522 lung was > 25 µM throughout. The TGI in the test with OVCAR-5 ovarian, with SK-MEL-28 melanoma, with SN12C renal and in the test on SR leukemia was > 25 µM in each case.
